Data set [1] relates to HIV. The following applies: MT4 lymphocytes; cited from earlier work.
In data set [2] the test system is HIV. To be noted: ATH8 T-lymphocyte cell line; cited from earlier work.
Data set [3] has as its target T1, bacterial thymidine phosphorylase (Escherichia coli, UniProt P07650).
T1 construct: purchased Sigma Chemical Co., St. Louis, MO
The data set is described as follows: Phosphorolytic cleavage by dThd phosphorylase. Format: biochemical. To be noted: for Initial velocity of phosphorolysis: 25°C, 0.1 M sodium phosphate buffer, pH 7.0, N.D. = not detectable with 25 units of enzyme. Here is the method: Phosphorolytic cleavage of the test compounds was assessed using purified bacterial dThd phosphorylase (Sigma Chemical Co., St. Louis, MO) with the aid of a Beckman spectrophotometer UV/Vis 5200; the absorbance change during the enzyme reaction was continuously monitored at 25°C at the wavelength where the difference of absorption between the nucleoside and its free base was maximal. The reaction mixtures for all the assays consisted of enzyme and non-satura ting concentrations of nucleoside in 0.1 M sodium phosphate buffer, pH 7.0. The initial velocity of phosphorolysis was expressed as nmol/min/enzyme unit.

The next data set has as its system C3H cells. The experiment in a line: Cytotoxicity for C3H cells (alteration of normal cell morphology). The format is cell-based, mouse. To be noted: alteration of normal cell morphology, C3H cells.
For another data set, the target named is T2, Molt/4F dCyd kinase (Homo sapiens, UniProt P27707).
T2 construct: endogenous in cells; host or cells: Molt/4F cells (sonicated extract, 30-70% ammonium sulfate fraction, dialyzed)
T2 sequence (P27707 whole entry): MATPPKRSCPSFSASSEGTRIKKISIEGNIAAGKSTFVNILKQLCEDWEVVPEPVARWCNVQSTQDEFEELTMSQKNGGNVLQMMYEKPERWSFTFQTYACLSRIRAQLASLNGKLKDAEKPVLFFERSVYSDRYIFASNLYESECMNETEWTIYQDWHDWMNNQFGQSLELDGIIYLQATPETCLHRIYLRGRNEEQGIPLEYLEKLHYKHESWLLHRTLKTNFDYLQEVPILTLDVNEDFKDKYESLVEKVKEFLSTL
The data set is described as follows: Inhibition of dCyd kinase (Lineweaver-Burk). Format: biochemical. Here is the method: ddUrd and the 3′-fluoro- and 3′-azido-substituted pyrimidine 2′,3′-dideoxynucleoside analogues were evaluated for their inhibitory effect against dThd and dCyd kinase.
dThd kinase and dCyd kinase were prepared from exponen tially growing Molt/4F cells, which were first washed (2x) with phosphate-buffered saline at 4° and then homogenized by sonication. The suspensions were clarified by centrifugation at 25,000-27,000 x g for 30 min. The 30-70% (NH₄)₂SO₄ precipitate of the supernatant was resuspended in buffer containing 10 uM potassium phosphate, pH 7.5, 10 mM β-mercaptoethanol and 0.1 M KCl, dialyzed against the same buffer, and used for the dThd kinase and the dCyd kinase assays. In these experiments, (2-¹⁴C)dThd and (U-¹⁴C)dCyd served as the radiolabelled substrates. The apparent Km and Ki values were derived from Lineweaver-Burk plots, using a linear regression analysis program. The assay procedures have been described in detail (J. Balzarini et al, (1983) and J. Balzarini et al, Biochem. Pharmacol. 31, 3673-3682 (1982)).

Data set [4] relates to Moloney murine sarcoma virus (MSV). The experiment in a line: Inhibition of transformation of C3H cells by MSV. Format: cell-based. How it is done:
Moloney murine sarcoma virus (MSV) was prepared from tumors induced by in vivo infection of 10 day-old NMRI mice according to the procedure described by De Clercq et al (Proc. Soc. Exp. Biol. Med. 137, 590-594 (1971)).
ddUrd and the substituted pymiridine 2′,3′-dideoxynucleoside analogues were examined for their inhibitory effect on the transformation of mouse embryo C3H fibroblasts by Moloney murine sarcoma virus (MSV).
C3H cells were seeded at 20,000 cells per ml into wells of Costar Tissue Culture Cluster plates (48 wells per plate) and grown to confluency. Cell cultures were then infected by 150 foci-forming units of MSV during 90 min, whereafter the culture medium was replaced by 1 ml fresh medium containing different concentrations of the test compound. After 6 days, the transformation of the cell cultures was examined microscopically.

T1 sequence (P07650 whole entry): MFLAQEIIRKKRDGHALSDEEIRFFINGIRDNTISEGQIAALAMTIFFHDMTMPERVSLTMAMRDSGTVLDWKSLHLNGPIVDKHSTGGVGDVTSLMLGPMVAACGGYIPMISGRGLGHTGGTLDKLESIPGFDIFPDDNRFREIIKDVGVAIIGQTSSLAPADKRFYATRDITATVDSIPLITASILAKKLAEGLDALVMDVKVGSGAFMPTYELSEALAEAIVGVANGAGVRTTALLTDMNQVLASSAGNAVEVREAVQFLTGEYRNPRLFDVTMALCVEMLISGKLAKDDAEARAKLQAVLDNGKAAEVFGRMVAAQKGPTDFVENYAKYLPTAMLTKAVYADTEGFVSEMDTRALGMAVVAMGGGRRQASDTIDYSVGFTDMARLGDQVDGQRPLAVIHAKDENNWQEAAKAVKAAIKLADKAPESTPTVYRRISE

Regarding `Cc1cn([C@H]2C=C[C@@H](CO)O2)c(=O)[nH]c1=O` [2′,3′-didehydro-2′,3′-dideoxythymidine], the “concentration that protects MT4 cells against HIV” value in the data set with HIV [1] is reported as 0,04 µM.

For `Cc1cn([C@H]2CC[C@@H](CO)O2)c(=O)[nH]c1=O` [2′,3′-dideoxythymidine], in the data set on HIV [1], the “concentration that protects MT4 cells against HIV” value is given as 1 µM.

In the case of `[N-]=[N+]=N[C@H]1C[C@H](n2ccc(N)nc2=O)O[C@@H]1CO` [AzddCyd, 3′-Azido-2′,3′-dideoxycytidine], the “anti-retroviral effect compared with ddCyd” value with HIV [2] is listed as “much less effective than ddCyd”. Also, the “susceptibility to phosphorolysis by dThd phosphorylase (in words)” value in data set [3] (purified bacterial dThd phosphorylase) is recorded as “totally resistant”. For the same molecule, in the data set on C3H cells, the “MSV-induced cyto-pathogenicity CD50” value is on record as greater than 400 µM. In addition, the Ki/Km at Molt/4F dCyd kinase (Km 5.2 to 6.4 µM) was determined as 58. This molecule also came in with a Ki at Molt/4F dCyd kinase (substrate (U-14C)dCyd) of 354 µM. On Molt/4F dCyd kinase (with respect to dCyd), the Type of inhibition result is on record as “competitive”. Also, the EC50 in data set [4] (Moloney murine sarcoma virus, 144 h, 50% reduction of transformation of C3H cells by MSV, 6 days, read-out: MSV-induced cyto-pathogenicity ED50) came out at 70 µM. Moreover, in data set [4] (Selectivity index or ratio of CD50 to ED50, C3H cells), the “MSV-induced cyto-pathogenicity S.I.” value was greater than 5.7.

Turning to `Cc1cn([C@H]2C[C@H](N=[N+]=[N-])[C@@H](CO)O2)c(=O)[nH]c1=O` [AzddThd, 3′-azido-2′,3′-dideoxythymidine], the “concentration that protects MT4 cells against HIV” value with HIV [1] is listed as 0.02 µM.

On to `CCc1cn([C@H]2C[C@H](O)[C@@H](CO)O2)c(=O)[nH]c1=O` [dEtUrd], for which the “Initial velocity of phosphorolysis” value in data set [3] came to 0.893 nmol/min/unit.

In the case of `O=c1ccn([C@H]2C[C@H](O)[C@@H](CO)O2)c(=O)[nH]1` [dUrd], in data set [3], the “Initial velocity of phosphorolysis” value turned out to be 361 nmol/min/unit.

The values above are taken from patent EP0316592A2, “3'-Fluoro-2',3'-dideoxyuridine, and its therapeutic application” (Stichting REGA V.Z.W., priority 1987, dated 1989).
